Each compound was assayed against T1, human recombinant A3AR (expressed in HEK-293 cells) (Homo sapiens, UniProt P0DMS8) (assay: Adenosine receptors antagonism assay (Eurofins), [125I]-AB-MECA radioligand competition). Conditions: [125I]-AB-MECA 0.15 nM, r.t., 120 min; IC50 from dose-response curves; read-out: Potency Class A3AR.
T1 construct: host or cells: HEK-293 cells
T1 sequence (P0DMS8 1-318): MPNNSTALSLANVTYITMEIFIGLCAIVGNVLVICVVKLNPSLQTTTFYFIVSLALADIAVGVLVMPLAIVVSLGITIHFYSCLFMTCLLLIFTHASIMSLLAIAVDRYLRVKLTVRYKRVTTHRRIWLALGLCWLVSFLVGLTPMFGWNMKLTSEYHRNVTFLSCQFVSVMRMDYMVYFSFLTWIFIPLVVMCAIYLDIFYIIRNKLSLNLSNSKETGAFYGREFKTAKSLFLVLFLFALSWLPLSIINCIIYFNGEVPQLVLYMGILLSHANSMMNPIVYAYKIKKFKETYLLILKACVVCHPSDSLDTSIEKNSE
Type: binding

| IC50 | SMILES |
| --- | --- |
| 0.1 to 1 µM | COCCCNc1cc(NCc2ccccc2)c2nnc(-c3ccccc3)n2n1 [compound 34, N8-benzyl-N6-(3-methoxypropyl)-3-phenyl-[1,2,4]triazolo[4,3-b]pyridazine-6,8-diamine] |
| 0.001 to 0.01 µM | CCOC(=O)Nc1cc(NC(CC)CC)nn2c(C(C)C)nnc12 [compound 99, ethyl N-[6-(1-ethylpropylamino)-3-isopropyl-[1.2.4]triazolo[4,3-b]pyridazin-8-yl]carbamate] |
| 0.1 to 1 µM | CC[C@H](CO)Nc1cc(NCc2ccccc2)c2nnc(C3CC3)n2n1 [compound 30, (2R)-2-[[8-(benzylamino)-3-cyclopropyl-[1,2,4]triazolo[4,3-b]pyridazin-6-yl]amino]butan-1-ol] |
| 0.01 to 0.1 µM | CC[C@H](CO)Nc1cc(NCc2ccccc2)c2nnc(C(C)C)n2n1 [compound 1, (2R)-2-[[8-(benzylamino)-3-isopropyl-[1,2,4]triazolo[4,3-b]pyridazin-6-yl]amino]butan-1-ol] |
| 0.01 to 0.1 µM | CC[C@@H](CO)Nc1cc(NCc2ccc(-c3ccccn3)cc2)c2nnc(C(C)C)n2n1 [compound 105, (2S)-2-[[3-isopropyl-8-[[4-(2-pyridyl)phenyl]methylamino]-[1,2,4]triazolo[4,3-b]pyridazin-6-yl]amino]butan-1-ol] |
| 0.001 to 0.01 µM | CCC(CC)Nc1cc(NCCc2ccncc2)c2nnc(C3CC3)n2n1 [compound 88, 3-cyclopropyl-N6-(1-ethylpropyl)-N8-[2-(4-pyridyl)ethyl]-[1,2,4]triazolo[4,3-b]pyridazine-6,8-diamine] |
| 0.01 to 0.1 µM | CC[C@@H](CO)Nc1cc(NCc2ccc(-c3ccncc3)cc2)c2nnc(C(C)C)n2n1 [compound 103, (2S)-2-[[3-isopropyl-8-[[4-(4-pyridyl)phenyl]methylamino]-[1,2,4]triazolo[4,3-b]pyridazin-6-yl]amino]butan-1-ol] |
| 0.01 to 0.1 µM | CCOC(=O)CCNc1cc(NCc2ccccc2)c2nnc(C(C)C)n2n1 [compound 29, ethyl 3-[[8-(benzylamino)-3-isopropyl-[1,2,4]triazolo[4,3-b]pyridazin-6-yl]amino]propanoate] |
| 0.1 to 1 µM | CC[C@H](CO)Nc1cc(N[C@H](CC)CO)c2nnc(C(C)C)n2n1 [compound 113, (2R)-2-[[6-[[(1R)-1-(hydroxymethyl)propyl]amino]-3-isopropyl-[1,2,4]triazolo[4,3-b]pyridazin-8-yl]amino]butan-1-ol] |
| 0.1 to 1 µM | COCCNc1cc(NCCOC)c2nnc(C(C)C)n2n1 [compound 112, 3-isopropyl-N6,N8-bis(2-methoxyethyl)-[1,2,4]triazolo[4,3-b]pyridazine-6,8-diamine] |
| 0.01 to 0.1 µM | CC[C@@H](CO)Nc1cc(NCc2ccc(-c3ccccc3)cc2)c2nnc(C(C)C)n2n1 [compound 102, (2S)-2-[[3-isopropyl-8-[(4-phenylphenyl)methylamino]-[1,2,4]triazolo[4,3-b]pyridazin-6-yl]amino]butan-1-ol] |
| 0.001 to 0.01 µM | CC1(CNc2cc(NCc3ccccn3)c3nnc(C4CC4)n3n2)CCC1 [compound 206, 3-cyclopropyl-N6-((1-methylcyclobutyl)methyl)-N8-(pyridin-2-ylmethyl)-[1,2,4]triazolo[4,3-b]pyridazine-6,8-diamine] |
| 0.001 to 0.01 µM | CCC(CC)Nc1cc(NC(CC)CC)c2nnc(C(C)C)n2n1 [compound 114, N6,N8-bis(1-ethylpropyl)-3-isopropyl-[1,2,4]triazolo[4,3-b]pyridazine-6,8-diamine] |
| 0.01 to 0.1 µM | CCC(CC)Nc1cc(NC(=O)c2ccccn2)c2nnc(C(C)C)n2n1 [compound 97, N-[6-(1-ethylpropylamino)-3-isopropyl-[1,2,4]triazolo[4,3-b]pyridazin-8-yl]pyridine-2-carboxamide] |
| 0.01 to 0.1 µM | CCC(CC)Nc1cc(Nc2ncccc2OC)c2nnc(C(C)C)n2n1 [compound 157, 3-isopropyl-N8-(3-methoxypyridin-2-yl)-N6-(pentan-3-yl)-[1,2,4]triazolo[4,3-b]pyridazine-6,8-diamine] |
| 0.001 to 0.01 µM | CCC(CC)Nc1cc(N2CCc3ccccc3C2)c2nnc(C(C)C)n2n1 [compound 80, 8-(3,4-dihydro-1H-isoquinolin-2-yl)-N-(1-ethylpropyl)-3-isopropyl-[1,2,4]triazolo[4,3-b]pyridazin-6-amine] |
| < 0.001 µM | CCC(CC)Nc1cc(Nc2ccncn2)c2nnc(C(C)C)n2n1 [compound 150, 3-isopropyl-N6-(pentan-3-yl)-N8-(pyrimidin-4-yl)-[1,2,4]triazolo[4,3-b]pyridazine-6,8-diamine] |
| 0.1 to 1 µM | CCC(CC)Nc1cc(NCc2ccccn2)c2nncn2n1 [compound 57, N6-(1-ethylpropyl)-N8-(2-pyridylmethyl)-[1,2,4]triazolo[4,3-b]pyridazine-6,8-diamine] |

| IC50 | SMILES |
| --- | --- |
| < 0.001 µM | CCC(CC)Nc1cc(Nc2cccnc2)c2nnc(C3CC3)n2n1 [compound 173, 3-cyclopropyl-N6-(1-ethylpropyl)-N8-(3-pyridyl)-[1,2,4]triazolo[4,3-b]pyridazine-6,8-diamine] |
| 0.1 to 1 µM | CC[C@H](CO)Nc1nn2c(C(C)C)nnc2c(NCc2ccccc2)c1C [compound 115, (2R)-2-[[8-(benzylamino)-3-isopropyl-7-methyl-[1,2,4]triazolo[4,3-b]pyridazin-6-yl]amino]butan-1-ol] |
| 0.1 to 1 µM | CCC(CC)Nc1cc(NCc2ccccn2)c2nnc(-c3ccccn3)n2n1 [compound 70, N6-(1-ethylpropyl)-3-(2-pyridyl)-N8-(2-pyridylmethyl)-[1,2,4]triazolo[4,3-b]pyridazine-6,8-diamine] |
| 0.1 to 1 µM | CCC(CC)Nc1cc(NCc2ccccn2)c2nnc(C3CCCCC3)n2n1 [compound 65, 3-cyclohexyl-N6-(1-ethylpropyl)-N8-(2-pyridylmethyl)-[1,2,4]triazolo[4,3-b]pyridazine-6,8-diamine] |
| 0.01 to 0.1 µM | CC[C@H](CO)Nc1cc(NCc2ccccc2)c2nnc(-c3ccccc3)n2n1 [compound 35, (2R)-2-[[8-(benzylamino)-3-phenyl-[1,2,4]triazolo[4,3-b]pyridazin-6-yl]amino]butan-1-ol] |
| 0.001 to 0.01 µM | CCC(CC)Nc1cc(NCc2cccnc2)c2nnc(C(C)C)n2n1 [compound 50, N6-(1-ethylpropyl)-3-isopropyl-N8-(3-pyridylmethyl)-[1,2,4]triazolo[4,3-b]pyridazine-6,8-diamine] |
| 0.1 to 1 µM | CC(C)c1nnc2c(NCc3ccccc3)cc(NC(CO)CO)nn12 [compound 3, 2-[[8-(benzylamino)-3-isopropyl-[1,2,4]triazolo[4,3-b]pyridazin-6-yl]amino]propane-1,3-diol] |
| < 0.001 µM | CCC(CC)Nc1cc(Nc2cccnn2)c2nnc(C(C)C)n2n1 [compound 148, 3-isopropyl-N6-(pentan-3-yl)-N8-(pyridazin-3-yl)-[1,2,4]triazolo[4,3-b]pyridazine-6,8-diamine] |
| 0.01 to 0.1 µM | CCC(CC)Nc1cc(NCc2ccccn2)c2nnc(C3CCCC3)n2n1 [compound 64, 3-cyclopentyl-N6-(1-ethylpropyl)-N8-(2-pyridylmethyl)-[1,2,4]triazolo[4,3-b]pyridazine-6,8-diamine] |
| 0.001 to 0.01 µM | CCC(CC)Nc1cc(Nc2ccncc2)c2nnc(C(C)C)n2n1 [compound 48, N6-(1-ethylpropyl)-3-isopropyl-N8-(4-pyridyl)-[1,2,4]triazolo[4,3-b]pyridazine-6,8-diamine] |
| 0.01 to 0.1 µM | CCNc1cc(NCc2ccccn2)c2nnc(C3CC3)n2n1 [compound 189, 3-cyclopropyl-N6-ethyl-N8-(2-pyridylmethyl)-[1,2,4]triazolo[4,3-b]pyridazine-6,8-diamine] |
| 0.01 to 0.1 µM | COC(=O)CCNc1cc(NCc2ccccc2)c2nnc(C(C)C)n2n1 [compound 28, methyl 3-[[8-(benzylamino)-3-isopropyl-[1,2,4]triazolo[4,3-b]pyridazin-6-yl]amino]propanoate] |
| 0.001 to 0.01 µM | CCC(CC)Nc1cc(NCCCc2ccncc2)c2nnc(C(C)C)n2n1 [compound 91, N6-(1-ethylpropyl)-3-isopropyl-N8-[3-(4-pyridyl)propyl]-[1,2,4]triazolo[4,3-b]pyridazine-6,8-diamine] |
| 0.001 to 0.01 µM | CCC(CC)Nc1cc(NCc2cccnn2)c2nnc(C3CC3)n2n1 [compound 216, 3-cyclopropyl-N6-(pentan-3-yl)-N8-(pyridazin-3-ylmethyl)-[1,2,4]triazolo[4,3-b]pyridazine-6,8-diamine] |
| 0.01 to 0.1 µM | CCC(CC)Nc1cc(NCc2ccccn2)c2nnc(C)n2n1 [compound 58, N6-(1-ethylpropyl)-3-methyl-N8-(2-pyridylmethyl)-[1,2,4]triazolo[4,3-b]pyridazine-6,8-diamine] |
| 0.1 to 1 µM | CC(=O)NCCCNc1cc(NCc2ccccc2)c2nnc(C(C)C)n2n1 [compound 24, N-[3-[[8-(benzylamino)-3-isopropyl-[1,2,4]triazolo[4,3-b]pyridazin-6-yl]amino]propyl]acetamide] |
| 0.01 to 0.1 µM | CC(C)c1nnc2c(NCc3ccccc3)cc(NC3CCOCC3)nn12 [compound 23, N8-benzyl-3-isopropyl-N6-tetrahydropyran-4-yl-[1,2,4]triazolo[4,3-b]pyridazine-6,8-diamine] |
| 0.001 to 0.01 µM | c1ccc(CNc2cc(NC3CCCCC3)nn3c(C4CC4)nnc23)nc1 [compound 200, N6-cyclohexyl-3-cyclopropyl-N8-(pyridin-2-ylmethyl)-[1,2,4]triazolo[4,3-b]pyridazine-6,8-diamine] |

Same assay, conditions: read-out: Potency Class A3AR; [125I]-AB-MECA 0.15 nM, r.t., 120 min; IC50 from dose-response curves

| SMILES | IC50 |
| --- | --- |
| CCC(CC)Nc1cc(NC(=O)Cc2cccnc2)c2nnc(C(C)C)n2n1 [compound 168, N-[6-(1-ethylpropylamino)-3-isopropyl-[1.2.4]triazolo[4,3-b]pyridazin-8-yl]-2-(3-pyridyl)acetamide] | < 0.001 µM |
